In patent US20180217163A1, “TREATMENT OF NEURODEGENERATIVE CONDITIONS USING PKC ACTIVATORS AFTER DETERMINING THE PRESENCE OF THE APOE4 ALLELE” (priority 2015, published 2018):
Read-outs that look alike come from different tables or passages of the source.

How the values were obtained:
[1] = test system: squamous cell carcinoma and melanoma; conditions: used topically; cited from earlier work
HDAC6 = HDAC6 nuclear translocation in SH-SY5Y cells (immunoblot); assay type: cell-based, human
Experimental: (§1) Human SH-SY5Y neuroblastoma cells (Sigma-Aldrich), were cultured in 45% F12K, 45% MEM, and 10% FBS. Cells were treated with cholesterol, ASPD, ApoE3/ApoE4+cholesterol, or PKC activators for 24 h. Cholesterol was dissolved in ethanol. ApoE (20 nM) and cholesterol (100 μM) were mixed separately into the cultures. To block the ApoE receptors, cells were treated with RAP for 30 min before adding ApoE. Human primary neurons (ScienCell Research Laboratories) were plated on poly-L-lysine-coated plates and were maintained in neuronal medium (ScienCell Research Laboratories) supplemented with the neuronal growth supplements (ScienCell Research Laboratories). Half of the culture medium was changed every 3 d and fresh activators were added with every medium change to maintain viable neurons.
A PBS solution of 5×10^6 Human SH-SY5Y neuroblastoma cells was centrifuged and the resultant cell pellet was resuspended and washed twice with cold PBS. After the second wash, the cell pellet was resuspended in 500 μl of hypotonic buffer (20 mM Tris-Cl, pH 7.4, 10 mM NaCl, 3 mM MgCl2, and 1 mM PMSF) and incubated on ice for 15 min. Next, 25 μl of 10% NP-40 was added to the cell suspension and the sample was vortexed for 10 s. The homogenate was centrifuged for 10 min at 1000×g at 4° C. to obtain the cytoplasmic fraction (supernatant) and nuclear fraction (pellet). After removing the supernetant, the nuclear pellet was resuspended in 50 μl of complete cell extraction buffer (100 mM Tris-Cl, pH 7.4, 2 mM Na3VO4, 100 mM NaCl, 1% Triton X-100, 1 mM EDTA, 10% glycerol, 1 mM EGTA, 0.1% SDS, 1 mM NaF, 0.5% deoxycholate, 20 mM Na4P2O7, and 1 mM PMSF) and incubated on ice for 30 min with vortexing at 10 min intervals. The nuclear lysate was centrifuged at 14,000×g for 30 min at 4° C. to obtain the nuclear fraction (supernatant). Protein concentration was measured using the Coomassie Plus (Bradford) Protein Assay kit (Pierce).
Protein in samples of the supernetant and nuclear fractions was separated by SDSPAGE in a 4-20% gradient Tris-Glycine gel (Invitrogen). The protein was then transferred to nitrocellulose membrane. The membrane was blocked with BSA at room temperature for 15 min and incubated with primary antibody overnight at 4° C. After incubation, the membrane was washed thrice (3×) with TBS-T (Tris-buffered saline-Tween 20) and further incubated with alkaline-phosphatase-conjugated secondary antibody (Jackson Immunoresearch Laboratories) at 1:10,000 dilution for 45 min. Following incubation, the membrane was washed 3× with TBS-T and developed using the 1-step NBT-BCIP substrate (Pierce). […] The immunoblot proteins were detected using ImageQuant RT-ECL (GE Life Sciences) and densitometric quantification was performed using IMAL software, which was developed at our institution. […]

[2] = in vivo; cited from earlier work
HDAC4 = HDAC4 nuclear translocation in SH-SY5Y cells (immunoblot); assay type: cell-based, human
Experimental: as §1
A PBS solution of 5×10^6 Human SH-SY5Y neuroblastoma cells was centrifuged and the resultant cell pellet was resuspended and washed twice with cold PBS. After the second wash, the cell pellet was resuspended in 500 μl of hypotonic buffer (20 mM Tris-Cl, pH 7.4, 10 mM NaCl, 3 mM MgCl2, and 1 mM PMSF) and incubated on ice for 15 min. Next, 25 μl of 10% NP-40 was added to the cell suspension and the sample was vortexed for 10 s. The homogenate was centrifuged for 10 min at 1000×g at 4° C. to obtain the cytoplasmic fraction (supernatant) and nuclear fraction (pellet). […] Protein concentration was measured using the Coomassie Plus (Bradford) Protein Assay kit (Pierce).
Protein in samples of the supernetant and nuclear fractions was separated by SDSPAGE in a 4-20% gradient Tris-Glycine gel (Invitrogen). […] The immunoblot proteins were detected using ImageQuant RT-ECL (GE Life Sciences) and densitometric quantification was performed using IMAL software, which was developed at our institution. […]

protein kinase C = conditions: (-)-enantiomer; cited from earlier work
PKC [3] = conditions: cited from earlier work
PKCε mRNA = PKCε mRNA expression in SH-SY5Y cells (qRT-PCR); assay type: cell-based, human; conditions: ASPD-treated cells
Experimental: as §1
qRT-PCR was performed and the results analyzed as described previously (Schmittgen et al., Analyzing real-time PCR data by the comparative C(T) method, Nat. Protoc., 3:1101-1108, 2008; Sen et al., 2012 supra). Total RNA (500 ng) was reverse transcribed using oligo(dT) and Superscript III (Invitrogen) at 50° C. for 1 h. The cDNA products were analyzed using a LightCycler 480 II (Roche) PCR machine and LightCycler 480 SYBR Green 1 master mix following the manufacturer's protocol. […]

BDNF mRNA = BDNF mRNA expression in SH-SY5Y cells (qRT-PCR); assay type: cell-based, human; conditions: ASPD-treated cells
Experimental: as §1
qRT-PCR was performed and the results analyzed as described previously (Schmittgen et al., Analyzing real-time PCR data by the comparative C(T) method, Nat. Protoc., 3:1101-1108, 2008; Sen et al., 2012 supra). Total RNA (500 ng) was reverse transcribed using oligo(dT) and Superscript III (Invitrogen) at 50° C. for 1 h. The cDNA products were analyzed using a LightCycler 480 II (Roche) PCR machine and LightCycler 480 SYBR Green 1 master mix following the manufacturer's protocol. Primers for PKCε (forward primer: […], reverse primer: […], PKCα (forward-[…], reverse: […]), PKC (forward: […], reverse: CCGATG […]), GAPDH (forward: […], reverse: […]), and BDNF (forward: […], reverse: […]; Origene).

PKC [4] = conditions: [3H] phorbol dibutyrate competition; cited from earlier work
NCI 60 cell line screen = conditions: cited from earlier work
PKC [5] = conditions: cited from earlier work; remark: listed apart in the source
[6] = ApoE4+ASPD induced translocation, 24 h
[7] = A-ring bryologs, read-out: affinity for PKC
[8] = RAP 100 nM, 30 min before ApoE+Chol 24 h

C/C=C(/C)C(=O)O[C@H]1C(C)=C[C@]23C(=O)[C@@H](C=C(CO)[C@@H](O)[C@]12O)[C@H]1[C@@H](C[C@H]3C)C1(C)C [Ingenol-3-angelate]
antitumor activity [1]: exhibits antitumor activity

CCC/C=C/C=C/C(=O)O[C@H]1/C(=C/C(=O)OC)C[C@H]2C[C@H]([C@@H](C)O)OC(=O)C[C@H](O)C[C@@H]3C[C@H](OC(C)=O)C(C)(C)C(O)(C[C@@H]4C/C(=C/C(=O)OC)C[C@H](/C=C/C(C)(C)[C@]1(O)O2)O4)O3 [Bryostatin-1]
reduction in nuclear HDAC6 (HDAC6; [6]): 46±9.2% | dose exhibiting no toxicity [2]: 20 μg/week | dose that may be associated with muscle pain [2]: more than 35 μg/week | reduction of nuclear import of HDAC4 (HDAC4; [6]): 40±8.4%

CCCCCCCCc1ccc2c3c(c[nH]c13)C[C@@H](CO)NC(=O)[C@H](C(C)C)N2C [Octylindolactam V]
EC50 (protein kinase C): 29 nM

CCCCCCCC(=O)OC1C(=CC(=O)OC)CC2CC(CO)OC(=O)CC(O)CCOC(C(C)(C)C)CC3CCOC(C=CC(C)(C)C1(O)O2)O3 (stereo not shown) [bryolog 3]
Ki (PKC [3]; [7]): 6.5 nM

ASPD+Chol: amyloid-β amylospheroids prepared from Aβ1-42, plus cholesterol
HDAC6 in the nucleus, percentage of total protein (HDAC6; 24 h, immunoblot): 21.7±2.8% | PKCε mRNA levels (PKCε mRNA): 0.58±0.06 fold | BDNF mRNA levels (BDNF mRNA): 0.62±0.05 fold

CC1=C[C@]23C(=O)[C@@H](C=C(COC(=O)c4ccccc4)[C@@H](O)[C@]2(O)[C@H]1OC(=O)c1ccccc1)[C@H]1[C@@H](C[C@H]3C)C1(C)C [Ingenol 3,20-dibenzoate]
Ki (PKC [4]): 240 nM

CC1=CC[C@H](C)C(C)(C)[C@@H]1/C=C/C(C)=C/CC[C@@]1(CO)[C@H](CCCO)/C(=C(/C)C=O)CC[C@]1(C)O [Iripallidal]
GI50 (concentration required to inhibit growth by 50%) (NCI 60 cell line screen): from micromolar to nanomolar range

CCC1CC1CC1CC1CC1CC1CC1CC1CC1CC1CC1CC1CCC(=O)OC (stereo not shown) [DHA-CP6, cyclopropanated docosahexaenoic acid methyl ester]
effective concentration (PKC [5]): 10 nM

CCCCCCCC(=O)OC1C(=CC(=O)OC)CC2CC(CO)OC(=O)CC(O)CCOC(c3ccccc3)CC3CCOC(C=CC(C)(C)C1(O)O2)O3 (stereo not shown) [bryolog 4]
Ki (PKC [3]; [7]): 2.3 nM

CCCCCCCC(=O)O[C@H]1/C(=C/C(=O)OC)C[C@H]2C[C@H](CO)OC(=O)C[C@H](O)C[C@@H]3CCC[C@H](C[C@@H]4CCO[C@H](/C=C/C(C)(C)[C@]1(O)O2)O4)O3 [Analog 1]
affinity for PKC (PKC [3]): highest affinity for PKC | Ki (PKC [3]; read-out: PKC Affin): 0.25 nM

CCCCCCCC(=O)OC1C(=CC(=O)OC)CC2CC(CO)OC(=O)CC(O)CCOC(CCCc3ccc(Br)cc3)CC3CCOC(C=CC(C)(C)C1(O)O2)O3 (stereo not shown) [bryolog 5]
Ki (PKC [3]; [7]): 1.9 nM

B1: RAP: recombinant human receptor-associated protein, ApoE receptor binding protein, from Molecular Innovations (protein, UniProt P30533 35-357, looked up)
Alpha-2-macroglobulin …: YSREKNQPKPSPKRESGEEFRMEKLNQLWEKAQRLHLPPVRLAELHADLKIQERDELAWKKLKLDGLDEDGEKEARLIRNLNVILAKYGLDGKKDARQVTSNSLSGTQEDGLDDPRLEKLWHKAKTSGKFSGEELDKLWREFLHHKEKVHEYNVLLETLSRTEEIHENVISPSDLSDIKGSVLHSRHTELKEKLRSINQGLDRLRRVSHQGYSTEAEFEEPRVIDLWDLAQSANLTDKELEAFREELKHFEAKIEKHNHYQKQLEIAHEKLRHAESVGDGERVSRSREKHALLEGRTKELGYTVKKHLQDLSGRISRARHNEL
effect of RAP pretreatment on ApoE-mediated nuclear translocation of HDAC6 (HDAC6; [8]): abolished the effects of ApoE3+Chol and ApoE4+Chol | effect of RAP pretreatment on ApoE-mediated nuclear translocation of HDAC4 (HDAC4; [8]): abolished the effects of ApoE3+Chol and ApoE4+Chol
